# From US8999071B2, “Surfactants derived from oligoglycerols” (Dow Global Technologies LLC, priority 2011, dated 2015)
# What was measured:
# Format in all cases: physicochemical
# [1] = Dynamic surface tension, maximum bubble pressure method (Kruss BP-2)
# Procedure: Dynamic surface tension is measured using a Kruss BP-2 Bubble Pressure Tensiometer. During the test, high purity nitrogen gas bubbles are produced in the surfactant solution at an exactly defined bubble generation rate. The gas bubbles enter the liquid through a glass capillary of known radius (0.223 mm). During this process the pressure passes through a maximum whose value is recorded by the instrument. Surface tension is then calculated from the maximum pressure during bubble formation, and reported as a function of bubble surface age, in ms, and bubble frequency. The measurements are made at ambient temperature.
# Dynamic surface tension of surfactants at varying surface ages (presented as bubble frequency) are measure by bubble pressure method on Kruss BP2 tensiometer at 0.1 wt % concentration and 25° C.
# [2] = Caustic stability: solubility in NaOH solution
# Procedure: The caustic stability of compounds 1 and 2 is measured by their solubility in 10 wt % NaOH solution: stock solutions are prepared at 1 wt %. Into a sample vial, 1.0 gram of a stock solution is weighed and then 9.0 grams of 11.1 wt % NaOH solution is added to get a 0.1 wt % surfactant solution in 10% NaOH. Both solutions are clear at this condition. In contrast, Tomadol® 91-6 (C9-C11 alcohols ethoxylated to 6EO, cloud point=52° C.) solution (0.1 wt %) becomes cloudy at 5% NaOH content.
# [3] = Acidic stability: appearance and shake foam in 0.01 M HCl
# Procedure: The acidic stability of compounds 1 and 2 are tested and compared with Triton™ CG-110 in 0.01 M HCl: solutions are prepared in 0.01 M HCl at 0.1 wt % surfactant concentration. Compound 1 solution is cloudy at this HCl concentration, indicating its cloud point is reduced by the presence of HCl.
# [4] = Surface tension and critical micelle concentration, Kruss K100 tensiometer with Wilhelmy plate; details: 25° C., FIG. 1
# Procedure: The surface tension and critical micelle concentration (cmc) of a surfactant solution is measured using Kruss K100 Surface Tensiometer fitted with a Wilhelmy platinum plate. A standard method is utilized. In this method, an increment of surfactant solution is added using a Dosimat™ dosimeter to the vessel initially containing deionized water, and then thoroughly stirred. The surface tension of the resulting solution is then measured. The process is repeated at each concentration data point. Two measurements are made for each system at ambient temperature.
# Surface tension-Concentration data for the compound 3 at 25° C. are plotted in FIG. 1.
# [5] = Dynamic surface tension, maximum bubble pressure method (Kruss BP-2); remark: listed apart in the source
structure (smiles),measurement,setting,value
"CCCCCCCCCOCC(O)COCC(O)CO (stereo not drawn) [Compound 1, 3-[3-(nonyloxy)-2-hydroxypropoxy]-1,2-propanediol]","surface tension over the whole tested range of ageing time compared to C12TG, C11DG and C10DG","[1]; 0.1 wt %, 25° C., FIG. 2",lower surface tension
same,"Surface Tension @ 6 bubbles/sec., 0.1 wt %",[1]; 25° C.,35.6 dyne/cm
same,appearance of 0.1 wt % surfactant solution in 10% NaOH,[2],clear
same,acidic stability compared with Triton CG-110,[3]; 0.01 M HCl,improved stability
same,"Foam Volume, 20 h","[3]; 0.1 wt % in 0.01M HCl, 10 ml, shaken at high for 10 min., after 20 hours in air at room temperature",17 mL
same,"Foam Volume, 0 h","[3]; 0.1 wt % in 0.01M HCl, 10 ml, shaken at high for 10 min., right after preparation",17 mL
same,"foam persistence after shaking, 20 h","[3]; 0.1 wt % in 0.01M HCl, after 20 hours at room temperature",no change
same,"foam persistence after shaking, 0 h","[3]; 0.1 wt % in 0.01M HCl, right after preparation",no change
same,appearance of solution in 0.01 M HCl,"[3]; 0.1 wt % surfactant, 0.01 M HCl",cloudy
"CCCCCCCCCCOCC(O)COCC(O)COCC(O)CO (stereo not drawn) [Compound 2, 3-(3-(3-(decyloxy)-2-hydroxypropoxy)-2-hydroxypropoxy)propane-1,2-diol]",acidic stability compared with Triton CG-110,[3]; 0.01 M HCl,improved stability
"CCCCCC(CCC)COCC(O)COCC(O)CO (stereo not drawn) [Compound 3, 3-(2-hydroxy-3-((2-propylheptyl)oxy)propoxy)propane-1,2-diol]",critical micelle concentration (cmc),[4],about 700 ppm
same,water surface tension after reaching critical micelle concentration,[4],26-27 dynes/cm
same,surface tension at bubble frequency larger than 10 bubbles/sec,"[1]; 0.1 wt %, 25° C., >10 bubbles/sec, FIG. 2",around 37 dynes/cm
same,surface tension in the whole range of surface ageing time compared to the Lutensol products,"[1]; 0.1 wt %, 25° C., FIG. 2",lower surface tension
same,"surface tension over the whole tested range of ageing time compared to C12TG, C11DG and C10DG","[1]; 0.1 wt %, 25° C., FIG. 2",lower surface tension
same,surface tension at lower bubble frequency compared to Surfynol 420,"[1]; 1-6 bubbles/sec., 0.1 wt %, FIG. 2",significantly lower surface tension
same,"Surface Tension @ 6 bubbles/sec., 0.1 wt %",[1]; 25° C.,33.3 dyne/cm
same,"Surface Tension @ 6 bubbles/sec., 0.05 wt %",[5],39.4 dyne/cm
"CCCCCCCCCCOCC(O)COCC(O)CO (stereo not drawn) [Compound 4, 3[3-(decyloxy)-2-hydroxypropoxy]-1,2-propanediol]","Surface Tension @ 6 bubbles/sec., 0.1 wt %",[1]; 25° C.,43.8 dyne/cm
"CCCCCCCCCCCOCC(O)COCC(O)CO (stereo not drawn) [Compound 6, 3-(2-hydroxy-3-(undecyloxy)propoxy)propane-1,2-diol]","Surface Tension @ 6 bubbles/sec., 0.1 wt %",[1]; 25° C.,61.4 dyne/cm
"CCCCCCCCCCCCOCC(O)COCC(O)COCC(O)CO (stereo not drawn) [Compound C12TG, 3-(3-(3-(dodecyloxy)-2-hydroxypropoxy)-2-hydroxypropoxy)propane-1,2-diol, reference compound]","Surface Tension @ 6 bubbles/sec., 0.1 wt %",[1]; 25° C.,56.9 dyne/cm
